The text below walks through data of article PMC5413004, “Small molecule inhibitors of mesotrypsin from a structure-based docking screen” (PLoS ONE, 2017).

The target of one assay is trypsin IV (mesotrypsin). Particulars: versus trypsin IV (mesotrypsin); cited from earlier work.
The target in assay [1] is T1, mesotrypsin (Homo sapiens, UniProt P35030).
T1 construct: made in house; host or cells: E. coli
T1 sequence (P35030 81-304 limits assumed): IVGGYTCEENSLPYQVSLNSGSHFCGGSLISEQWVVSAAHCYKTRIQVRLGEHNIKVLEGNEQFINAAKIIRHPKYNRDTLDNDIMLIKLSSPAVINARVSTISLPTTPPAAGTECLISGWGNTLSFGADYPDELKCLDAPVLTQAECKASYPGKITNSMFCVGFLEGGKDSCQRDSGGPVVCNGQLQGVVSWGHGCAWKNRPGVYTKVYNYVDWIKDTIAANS
In words: Competitive inhibition assay with N-Cbz-Gly-Pro-Arg-pNA, mesotrypsin. The format is biochemical. Conditions: for Ki: 0.25 nM enzyme, 37°C, pH 8.0, global fit to competitive inhibition, duplicate independent experiments. From the text:
(§1) Recombinant human anionic trypsinogen, human cationic trypsinogen and human mesotrypsinogen were expressed in E. coli, extracted from inclusion bodies, refolded, purified and activated with bovine enteropeptidase as described in previous work.
(§2) Active mesotrypsin was quantified by active site titration as described in [21] using 4-nitrophenyl-4-guanidinobenzoate (NPGB) from Sigma. Concentrations of colorimetric peptide reporter substrate N-Cbz-Gly-Pro-Arg-pNA (Sigma) for the activity and competitive inhibition assay were determined by end point assay. Working stocks for compounds were diluted in dimethylsulfoxide (DMSO) and stored at -20°C. Compounds were assessed for mesotrypsin inhibitory activity in reactions carried out in cuvettes at 37°C in a Varian Cary-100 spectrophotometer. Reactions consisted of 0.25 nM enzyme, 100 μM reporter substrate, 100 mM Tris-HCl pH 8.0, 1 mM CaCl2, and a compound concentration range between 50 nM to 500 μM in the assay. Reactions were followed for approximately three minutes, with the initial rates determined by the linear increase in absorbance resulting from para-nitroaniline production (ε410 = 8480 M^-1 cm^-1). Absorbance versus compound concentration was plotted on a Linear-Log scale to determine IC50.
(§3) The competitive inhibition assay reactions consisted of 0.25 nM enzyme, five reporter substrate concentrations between 10 μM-200 μM, and five inhibitory compound concentrations between 1–30 μM. Reactions were followed for approximately 3 minutes, and the initial rate data were globally fitted using Prism (GraphPad Software, San Diego CA) by non-linear regression based on Eq 1. Results are from duplicate independent experiments.
(§4) V= Kcat[E]o[S]/Km (1+[I]/Ki)+[S] (1)

Assay [2] concerns the target T2, trypsin 2 (anionic trypsin) (Homo sapiens, UniProt P07478).
T2 construct: made in house; host or cells: E. coli
In words: Competitive inhibition assay, anionic trypsin. The format is biochemical. Particulars: human trypsin 2. The protocol: (§5) To assess compound selectivity we determined Ki for the three compounds towards related human trypsin isoforms trypsin 1 (cationic trypsin) and trypsin 2 (anionic trypsin).
as §1, §3, §4

Assay [3] addresses T3, trypsin 1 (cationic trypsin) (Homo sapiens, UniProt P07477).
T3 construct: made in house; host or cells: E. coli
Put plainly: Competitive inhibition assay, cationic trypsin. The format is biochemical. Particulars: human trypsin 1. The protocol:
as §5, §1, §3, §4

Assay [4] addresses T1, mesotrypsin. In words: Mesotrypsin activity assay (colorimetric, N-Cbz-Gly-Pro-Arg-pNA). The class given is biochemical. Conditions: 0.25 nM enzyme, 100 μM substrate, compound 50 nM to 500 μM, 37°C. The protocol: Compounds were tested by an in vitro activity assay utilizing the colorimetric peptide reporter substrate N-Cbz-Gly-Pro-Arg-pNA. The assay monitors the rate of para-nitroaniline production after substrate cleavage by mesotrypsin.
as §1
as §2, with “Reactions consisted of 0.25 nM enzyme, 100 μM reporter substrate, 100 mM Tris-HCl pH 8.0, 1 mM CaCl2, and a compound concentration range between 50 nM to 500 μM in the assay.” left out

T2 sequence (P07478 24-247): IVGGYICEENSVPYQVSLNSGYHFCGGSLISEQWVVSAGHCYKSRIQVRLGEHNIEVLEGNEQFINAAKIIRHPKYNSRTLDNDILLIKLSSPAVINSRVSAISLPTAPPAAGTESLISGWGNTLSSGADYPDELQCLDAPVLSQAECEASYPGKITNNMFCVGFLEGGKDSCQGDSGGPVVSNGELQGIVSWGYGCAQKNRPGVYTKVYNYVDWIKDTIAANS

As usually defined, the Ki is a measure of affinity in units of concentration, obtained from inhibition or displacement. Regarding `N=C(N)c1ccccc1` [Benzamidine], the Ki at trypsin IV (mesotrypsin) is 22 µM.

As for `N=C(N)c1ccc(/N=N/Nc2ccc(C(=N)N)cc2)cc1` [Diminazene], the Ki stood at 3.66 µM at mesotrypsin [1], 2.29 ± 0.21 µM in assay [2] and 3.44 ± 0.41 µM in assay [3]. Besides, on mesotrypsin [1] (multiple substrate and compound concentrations, Lineweaver-Burk), the inhibition mode result was “competitive inhibitor”. Besides, at mesotrypsin [4], the “inhibitory activity towards mesotrypsin” value was “low micromolar range”.

As for `N=C(N)c1ccc(/C=C/c2ccc(C(=N)N)cc2O)cc1` [Hydroxystilbamidine, hydroxystilbamidine], the Ki on mesotrypsin [1] turned out to be 10.6 µM; in assay [2] it was 1.7 ± 0.05 µM; in assay [3], 3.35 ± 0.35 µM. Also, the “inhibitory activity towards mesotrypsin” value against mesotrypsin [4] was “low micromolar range”.

Take `N=C(N)c1ccc(OCCCCCOc2ccc(C(=N)N)cc2)cc1` [Pentamidine, pentamidine]: the inhibition constant (Ki) came out at 5.1 µM at mesotrypsin [1], 1.06 ± 0.01 µM in assay [2] and 3.12 ± 0.6 µM in assay [3].
